Data on 56 compounds can be found in publication PMC12040169 (PLOS Biology, 2025).

One may read the viability as a read-out of living cells in per cent, often relative to untreated cells.

The first series can be described thus: in vitro. The conditions noted are these: human, hela cells, % viability.
Consider `Cn1c(SCC(=O)NC(c2ccccc2)c2ccccc2)nnc1-c1ccncc1` [CBK266622], for which the viability at 28.5 h, 10 µM was 97.8%. As to `CCn1cc(S(=O)(=O)N2CCCC3(CCCCC3)C2)c(C)n1` [CBK282756], the viability at 28.5 h, 10 µM was 83.9%. Consider `O=C(CCn1c(C(F)F)cc2cccnc21)N1CCCC(CO)C1` (centres unmarked) [CBK284985], for which the viability at 28.5 h, 10 µM came to 99.5%. In the case of `O=C(O)Cn1c2ccc(Cl)cc2c2nc3ccccc3nc21` [CBK265712], the viability at 28.5 h, 10 µM was 97.8%.

In the case of `Cc1cc(C)n2ncc(C(=O)N3CCCC3c3ccc(F)cc3)c2n1` (centres unmarked) [CBK305885], the viability at 28.5 h, 10 µM was determined as 82.9%. On the same count and under the same terms, the result for `O=C(/C=C/c1cccnc1)Nc1cccc(N2CCNCC2)c1` [CBK034128T] reads 109%. Regarding `Cc1cc(NC(=O)c2ccc3[nH]ccc3c2)c2ccccc2n1` [CBK116270], the viability at 28.5 h, 10 µM turned out to be 104%. The same measure, in the same setting: the result for `CC(C)c1ccc(N2C(=O)N[C@@H]3CCN(C(=O)c4cccs4)[C@@H]3C2=O)cc1` [CBK289286] reads 90.7%; that for `CC(=O)NCCNS(=O)(=O)c1ccc(C(C)C)cc1` [CBK043726], 92.5%; that for `COc1ccc(S(=O)(=O)Nc2ccccc2C(=O)Nc2ccc(F)cc2)cc1OC` [CBK045404], 91.2%. In the case of `Cc1ccc(CNC(=O)NCCc2cccs2)cc1` [CBK044960], the viability at 28.5 h, 10 µM stood at 88.5%.

Turning to `Cc1cc(C(=O)O)c(C)cc1N` [CBK022781], the viability at 28.5 h, 10 µM was 95.5%. With `O=C(O)CNCCC(=O)c1ccc([N+](=O)[O-])cc1` [CBK020544], the viability at 28.5 h, 10 µM came to 87%. Regarding `Cc1cc(OCC(O)CN(Cc2ccccc2)C(C)(C)C)ccc1[N+](=O)[O-]` (centres unmarked) [CBK086757], the viability at 28.5 h, 10 µM stood at 99.6%. `Cc1ccc(C(=O)NCC2COc3ccccc3O2)c(N2CCN(C(=O)c3ccco3)CC2)n1` (centres unmarked) [CBK076356]: the viability at 28.5 h, 10 µM stood at 93.9%. Consider `Cc1cc(NC(=O)C2CCN(CCOc3ccccc3F)CC2)no1` [CBK305688], for which the viability at 28.5 h, 10 µM came out at 100%. As for `COc1ccc(Cl)cc1CN(C)C(=O)c1cnn2cc(CCO)cnc12` [CBK307236], the viability at 28.5 h, 10 µM was determined as 97.7%. In the case of `COc1ccc(Nc2nc(N)nc(CSCCO)n2)cc1` [CBK266714], the viability at 28.5 h, 10 µM came to 88.3%. With `CC1=Nc2c(cnn2-c2ccccc2)C2=NCCCN12` [CBK287928], the viability at 28.5 h, 10 µM came to 91.6%. Take `CC1CCc2c(sc(NC(=O)CCC(=O)O)c2C(=O)N2CCOCC2)C1` (centres unmarked) [CBK307550]: the viability at 28.5 h, 10 µM was 94.1%. Regarding `N#Cc1c(N)ncnc1-c1ccccc1` [CBK102172], the viability at 28.5 h, 10 µM was 84.2%. On to `CCCn1cnc2sc(C(=O)O)c(C)c2c1=O` [CBK287199], for which the viability at 28.5 h, 10 µM is 96%. In the case of `O=C(Cc1ccc(-c2ccccc2)cc1)NCc1nnc(-c2cccs2)o1` [CBK286295], the viability at 28.5 h, 10 µM came out at 94.3%. On to `CCC(Sc1ncccc1C(=O)O)C(=O)O` (centres unmarked) [CBK263216], for which the viability at 28.5 h, 10 µM was 98.4%. On to `O=C1COc2ccc(S(=O)(=O)NCCOc3ccccc3)cc2N1` [CBK268480], for which the viability at 28.5 h, 10 µM is 95.9%. On to `Cn1c(=O)oc2cc(NC(=O)CC3CCN(Cc4cccc(C(F)(F)F)c4)CC3)ccc21` [CBK285953], for which the viability at 28.5 h, 10 µM is 90%. In the case of `O=C(CO)N1CC2(CCN(CCc3c[nH]c4ccccc34)CC2)c2ccccc21` [CBK131503], the viability at 28.5 h, 10 µM was found to be 98.5%. As for `Nc1ccccc1SC(CC(=O)c1ccccc1)c1ccc2c(c1)OCO2` (centres unmarked) [CBK074823], the viability at 28.5 h, 10 µM worked out at 80.2%. For the compound `N#C/C(=C(/O)c1ccc(-c2ccc([N+](=O)[O-])cc2Cl)o1)c1nc(-c2ccc(F)cc2)cs1` [CBK266742], the viability at 28.5 h, 10 µM was 91%. On to `O=C(c1cccc(Cn2cccn2)c1)N1CCc2sccc2C1c1ccccc1` (centres unmarked) [CBK285552], for which the viability at 28.5 h, 10 µM amounted to 85.8%. Same read-out and setting: in the case of `O=C(COc1ccccc1)Nc1ccc2n(c1=O)C[C@H]1C[C@@H]2CN(C(=O)c2ccccc2)C1` [CBK289079] it was 76.6%; in that of `CCOC(=O)C1(C2CCCCC2)CCN(C(=O)C(c2ccccc2)c2ccccc2)CC1` [CBK136943], 106%. Take `CC(C)(C)c1ccc(-c2cnc(N)c(-c3ccc(C(=O)N4CCOCC4)cc3)n2)cc1` [CBK084543A]: the viability at 28.5 h, 10 µM came to 98.2%.

On to `Cc1ccc(CN(Cc2c[nH]cn2)C2CC(C)(C)NC(C)(C)C2)o1` [CBK283175], for which the viability at 28.5 h, 10 µM was determined as 91%.

As for `CC(NC(=O)c1cc2ccc(N(C)C)cc2[nH]1)c1ccccn1` (centres unmarked) [CBK281821], the viability at 28.5 h, 10 µM worked out at 80.6%.

On to `O=C1CCOC[C@]2(CN(Cc3ccccc3)C[C@H]2c2ccccc2)N1` [CBK283367], for which the viability at 28.5 h, 10 µM is 92.6%. With `CC(=O)Nc1cccc(OCC(=O)Nc2ccc(C)c(C)c2)c1` [CBK265429], the viability at 28.5 h, 10 µM came to 95.9%.

On to `O=C(O)C1CC=CCC1C(=O)c1c[nH]c2ccccc12` (centres unmarked) [CBK286603], for which the viability at 28.5 h, 10 µM is 90.7%.

With `CC(Cc1nc(-c2cnn(C)n2)cs1)n1cc(Cl)cn1` (centres unmarked) [CBK304256], the viability at 28.5 h, 10 µM was 90.8%. Consider `COc1cc(-c2cncc(Nc3cccc(C(F)(F)F)c3)n2)cc(OC)c1OC` [CBK065213], for which the viability at 28.5 h, 10 µM is 120%. With `O=C(NCc1ccc(OC(F)(F)F)cc1)c1cnoc1-c1ccc(Br)cc1` [CBK154885], the viability at 28.5 h, 10 µM stood at 100%. On to `CC(C)N1CC[C@@H]2[C@H]1C(=O)NC[C@H](CCC(=O)NCc1ccccc1)N2C` [CBK289027], for which the viability at 28.5 h, 10 µM amounted to 91.7%. Take `O=C(O)c1ccc(-c2ccc(OC(F)(F)F)cc2)nc1` [CBK160173T]: the viability at 28.5 h, 10 µM is 90.6%. Consider `COCCNC(=O)c1cc(C2CC2)nc2c1cnn2C(C)C` [CBK306099], for which the viability at 28.5 h, 10 µM is 101%. Still for that read-out and setting: in the case of `CC(C)(C)c1cc(C(C)(C)C)cc(S(=O)(=O)CCc2ccccn2)c1` [CBK261073] it was 88.4%; in that of `CC(C)(C)OCc1[nH]nc(O)c1Cc1c(Cl)cccc1Cl` [CBK089569], 106%. The same measure, in the same setting: the result for `COc1cccc(C(c2nnnn2C(C)(C)C)N2CCN(c3cccc(Cl)c3)CC2)c1` (centres unmarked) [CBK141669] reads 112%; that for `Cc1ccc(OCc2occc2C(=O)N2CCCn3cncc3C2)cc1` [CBK306618], 92.7%. Turning to `CCCN1CCN(S(=O)(=O)c2ccc(C)cc2)CC1` [CBK270326], the viability at 28.5 h, 10 µM is 90%. The same measure, in the same setting: the result for `COc1ccccc1C(NC(=O)C1CCN(CCc2c[nH]c3ccccc23)CC1)c1ccccn1` (centres unmarked) [CBK147923] reads 87.8%; that for `Cc1cc(Cl)ccc1CNC(=O)c1ccccc1Nc1cccc(C(F)(F)F)c1` [CBK149544], 97.3%. For `CN(C)CC(=O)Nc1ccc(Br)cc1C(=O)c1ccccc1Cl` [CBK264663F], the viability at 28.5 h, 10 µM turned out to be 91.4%.

Turning to `O=S(=O)(c1ccc(-c2ccccc2)cc1)N1CCCN(Cc2ccc(F)c(C(F)(F)F)c2)CC1` [CBK063115], the viability at 28.5 h, 10 µM was 98.9%. On the same count and under the same terms, in the case of `O=C(O)c1ccccc1NC1SC(=O)N(c2ccccc2)C1=O` (centres unmarked) [CBK261078] it was 93.7%. The same measure, in the same setting: the result for `CC(C)(C)OC(=O)N1CCCN(c2ccc(S(=O)(=O)c3ccccc3)c([N+](=O)[O-])c2)CC1` [CBK138502] reads 99.2%.

The series is the same for the next values; noted with them: human, hela cells, % viability, bulk resorufin, single well.
For `CS(=O)(=O)c1ccc(-c2ccc3c(c2)COC2(CCN(C(=O)CC4CCCCC4)CC2)O3)cc1` [CBK160589], the viability at 28.5 h, 10 µM amounted to 96.7%.
